The text below walks through data of ChEMBL document CHEMBL4364250, “Improvement of Asparagine Ethylenediamines as Anti-malarial Plasmodium-Selective Proteasome Inhibitors” (J Med Chem, 2019).

Data set [1] in a line: Inhibition of Plasmodium falciparum 20S proteasome beta5 subunit using suc-LLVY-AMC as substrate in presence of beta2 inhibitor WLW-VS.
Data set [2] concerns beta5 subunit of human 20S immunoproteasome. Nature of the data set: Selectivity ratio of IC50 for human beta5 20S immunoproteasome to IC50 for Plasmodium falciparum 20S proteasome beta5 subunit. The following applies: read-out: Ratio IC50. It is filed as toxicity.
The subject of data set [3] is HepG2. The experiment in a line: Cytotoxicity against human HepG2 cells. It is filed as cell-based.
Data set [4] deals with T1, Proteasome subunit beta type-8 (Homo sapiens, UniProt P28062).
T1 sequence (P28062 whole entry): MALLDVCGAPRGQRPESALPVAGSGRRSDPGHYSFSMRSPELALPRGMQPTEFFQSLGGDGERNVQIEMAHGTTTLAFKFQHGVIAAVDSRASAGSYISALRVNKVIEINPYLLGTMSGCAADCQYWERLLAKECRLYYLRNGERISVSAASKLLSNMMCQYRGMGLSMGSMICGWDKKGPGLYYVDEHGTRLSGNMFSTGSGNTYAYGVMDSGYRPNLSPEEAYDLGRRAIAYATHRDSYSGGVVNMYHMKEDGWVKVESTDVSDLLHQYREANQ
The experiment in a line: Inhibition of human beta5 20S immunoproteasome using Ac-ANW-AMC as substrate.

Data set [5] concerns beta5 subunit of human 20S constitutive proteasome. Nature of the data set: Selectivity ratio of IC50 for human beta5 20S constitutive proteasome to IC50 for Plasmodium falciparum 20S proteasome beta5 subunit. It is filed as toxicity. The following applies: read-out: Ratio IC50.
Data set [6] addresses T2, Proteasome Macropain subunit MB1 (Homo sapiens, UniProt P28074).
T2 sequence (P28074 whole entry): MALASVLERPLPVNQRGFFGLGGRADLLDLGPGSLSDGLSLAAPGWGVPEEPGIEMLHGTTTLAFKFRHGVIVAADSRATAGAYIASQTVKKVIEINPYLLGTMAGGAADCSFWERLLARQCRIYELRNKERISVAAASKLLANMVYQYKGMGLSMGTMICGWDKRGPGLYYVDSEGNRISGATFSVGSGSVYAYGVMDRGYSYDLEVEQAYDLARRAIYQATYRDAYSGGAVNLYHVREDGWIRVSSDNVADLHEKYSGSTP
Nature of the data set: Inhibition of human beta5 20S constitutive proteasome using suc-LLVY-AMC as substrate.

The subject of data set [7] is Plasmodium falciparum. Nature of the data set: Antimalarial activity against erythrocytic stage of Plasmodium falciparum 3D7 measured after 72 hrs by SYBR green dye based fluorescence assay. It is filed as functional, organism-based. The following applies: 3D7, 72 h.
In data set [8] the test system is Karpas-1106P. Nature of the data set: Cytotoxicity against human KARPAS1106P cells. It is filed as cell-based.

As usually defined, the IC50 is the concentration that gives 50% inhibition. In general, EC50 refers to the concentration at which the effect is half-maximal. Take `Cc1ccc(S(=O)(=O)N[C@@H](CC(=O)NC(C)(C)C)C(=O)NCCNC(=O)c2ccccc2Cl)cc1`: the IC50 turned out to be 211 nM in data set [1], 1400 nM in data set [4] and 26000 nM in data set [6]. Also, the values for the selectivity ratio in data set [2] and in data set [5] were 6.6 and 123, respectively. In addition, the EC50 in data set [3] was above 11000 nM; in data set [7], 98 nM; in data set [8] it was above 11100 nM.
As to `Cc1ccc(S(=O)(=O)N[C@@H](CC(=O)NC(C)(C)C)C(=O)NCCNC(=O)NCc2ccccc2)cc1`, the IC50 in data set [1] stood at 2770 nM; in data set [4], 2350 nM; in data set [6], 46600 nM. For the same compound, the selectivity ratio in data set [2] came to 0.85; in data set [5] it was 16.8. Moreover, the results for the EC50 in data set [3], in data set [7] and in data set [8] were above 11000 nM, 2140 nM and above 11100 nM, respectively.
Consider `Cc1ccc(S(=O)(=O)N[C@@H](CC(=O)NC(C)(C)C)C(=O)NCCNC(=O)c2ccccn2)cc1`, for which the IC50 in data set [1] amounted to 1090 nM; in data set [4], 2090 nM; in data set [6], 29400 nM. Also, the selectivity ratio was 1.9 in data set [2] and 27 in data set [5]. For the same compound, the figures for the concentration for a half-maximal effect (EC50) in data set [3], in data set [7] and in data set [8] were above 11000 nM, above 2770 nM and above 11100 nM, respectively.
Take `Cc1ccc(S(=O)(=O)N[C@@H](CC(=O)NC(C)(C)C)C(=O)NCCNC(=O)c2cccc(C(C)C)c2)cc1`: the IC50 in data set [1] was 40.4 nM; in data set [4], 200 nM; in data set [6] it was 9120 nM. Also, the values for the selectivity ratio in data set [2] and in data set [5] were 5 and 225, respectively. Further, the EC50 in data set [3] was above 11000 nM; in data set [7] it was 98.5 nM; in data set [8] it was above 11100 nM.
For `Cc1ccc(S(=O)(=O)N[C@@H](CC(=O)NC(C)(C)C)C(=O)NCCNS(=O)(=O)c2ccccc2)cc1`, the values for the IC50 in data set [1], in data set [4] and in data set [6] were 15100 nM, 2890 nM and above 100000 nM, respectively. For the same compound, the selectivity ratio is 0.2 in data set [2] and above 6.6 in data set [5]. The values for the EC50 in data set [3], in data set [7] and in data set [8] were above 11000 nM, above 2770 nM and above 11100 nM, respectively.
For `Cc1ccc(S(=O)(=O)N[C@@H](CC(=O)NC(C)(C)C)C(=O)NCCNC(=O)c2cc(C)ccn2)cc1`, the IC50 in data set [1] was 639 nM; in data set [4], 3110 nM; in data set [6], above 100000 nM. Further, the selectivity ratio was 4.9 in data set [2] and above 156 in data set [5]. Moreover, the values for the 50% effective concentration (EC50) in data set [3], in data set [7] and in data set [8] were above 11000 nM, 227 nM and above 11100 nM, respectively.
Consider `Cc1ccc(S(=O)(=O)N[C@@H](CC(=O)NC(C)(C)C)C(=O)NCCNC(=O)c2ccccc2O)cc1`, for which the IC50 turned out to be 6.1 nM in data set [1], 24 nM in data set [4] and 409 nM in data set [6]. Besides, the selectivity ratio is 4 in data set [2] and 67 in data set [5]. In addition, the EC50 in data set [3] is above 11000 nM; in data set [7] it was 9.6 nM; in data set [8], above 11100 nM.
As to `Cc1ccc(S(=O)(=O)N[C@@H](CC(=O)NC(C)(C)C)C(=O)NCCNC(=O)c2cccc(O)c2)cc1`, the IC50 in data set [1] was determined as 22.4 nM; in data set [4], 475 nM; in data set [6], 4380 nM. For the same compound, the selectivity ratio amounted to 21 in data set [2] and 195 in data set [5]. The figures for the EC50 in data set [3], in data set [7] and in data set [8] were above 11000 nM, 15.4 nM and above 11100 nM, respectively.
Take `Cc1ccc(S(=O)(=O)N[C@@H](CC(=O)NC(C)(C)C)C(=O)NCCNC(=O)c2cccc(C(F)(F)F)c2)cc1`: the values for the half-inhibitory concentration (IC50) in data set [1], in data set [4] and in data set [6] were 250 nM, 763 nM and 37100 nM, respectively. Moreover, the selectivity ratio was found to be 3.1 in data set [2] and 148 in data set [5]. Moreover, the EC50 in data set [3] was above 11000 nM; in data set [7] it was 167 nM; in data set [8], above 11100 nM.
As for `Cc1ccc(S(=O)(=O)N[C@@H](CC(=O)NC(C)(C)C)C(=O)NCCNC(=O)c2cccc(F)c2)cc1`, the IC50 in data set [1] was 29.6 nM; in data set [4], 128 nM; in data set [6], 2200 nM. The selectivity ratio in data set [2] was 4.3; in data set [5] it was 74. In addition, the figures for the EC50 in data set [3], in data set [7] and in data set [8] were above 11000 nM, 11.7 nM and above 11100 nM, respectively.
`Cc1ccc(S(=O)(=O)N[C@@H](CC(=O)NC(C)(C)C)C(=O)NCCNC(=O)Nc2ccccc2)cc1`: the IC50 is 2580 nM in data set [1], 2090 nM in data set [4] and above 100000 nM in data set [6]. Also, the selectivity ratio in data set [2] is 0.8; in data set [5], above 3.9. For the same compound, the concentration giving a half-maximal response (EC50) in data set [3] was above 11000 nM; in data set [7], above 2770 nM; in data set [8], above 11100 nM.
For `Cc1ccc(S(=O)(=O)N[C@@H](CC(=O)NC(C)(C)C)C(=O)NCCNC(=O)c2c(O)cccc2F)cc1`, the IC50 in data set [1] was found to be 40.5 nM; in data set [4], 72.7 nM; in data set [6], 540 nM. Further, the figures for the selectivity ratio in data set [2] and in data set [5] were 1.8 and 13, respectively. The EC50 is above 11000 nM in data set [3], 83.7 nM in data set [7] and above 11100 nM in data set [8].
For `Cc1ccc(S(=O)(=O)N[C@@H](CC(=O)NC(C)(C)C)C(=O)NCCNC(=O)c2cc(Cl)ccn2)cc1`, the values for the IC50 in data set [1], in data set [4] and in data set [6] were 911 nM, 3560 nM and above 100000 nM, respectively. Further, the selectivity ratio in data set [2] is 3.9; in data set [5] it was above 110. Moreover, the EC50 is above 11000 nM in data set [3], 283 nM in data set [7] and above 11100 nM in data set [8].
For the compound `Cc1ccc(S(=O)(=O)N[C@@H](CC(=O)NC(C)(C)C)C(=O)NCCNC(=O)c2cccc(C#N)c2)cc1`, the results for the IC50 in data set [1], in data set [4] and in data set [6] were 390 nM, 4690 nM and 40200 nM, respectively. Besides, the selectivity ratio turned out to be 12 in data set [2] and 103 in data set [5]. Moreover, the values for the EC50 in data set [3], in data set [7] and in data set [8] were above 11000 nM, 132 nM and above 11100 nM, respectively.
For `Cc1ccc(S(=O)(=O)N[C@@H](CC(=O)NC(C)(C)C)C(=O)NCCNC(=O)c2ccc(F)c(F)c2)cc1`, the IC50 in data set [1] came to 126 nM; in data set [4] it was 195 nM; in data set [6] it was 6040 nM. In addition, the results for the selectivity ratio in data set [2] and in data set [5] were 1.5 and 48, respectively. Besides, the EC50 is above 11000 nM in data set [3], 68.8 nM in data set [7] and above 11100 nM in data set [8].
Turning to `Cc1ccc(S(=O)(=O)N[C@@H](CC(=O)NC(C)(C)C)C(=O)NCCNC(=O)c2cc(Cl)ccc2Cl)cc1`, the values for the IC50 in data set [1], in data set [4] and in data set [6] were 197 nM, 5650 nM and above 100000 nM, respectively. The selectivity ratio in data set [2] is 28.7; in data set [5] it was above 507. The EC50 in data set [3] is above 11000 nM; in data set [7], 118 nM; in data set [8] it was above 11100 nM.
For the compound `COc1cc(OC)cc(C(=O)NCCNC(=O)[C@H](CC(=O)NC(C)(C)C)NS(=O)(=O)c2ccc(C)cc2)c1`, the IC50 in data set [1] was 4060 nM; in data set [4], 9970 nM; in data set [6], above 100000 nM. In addition, the selectivity ratio in data set [2] was 2.5; in data set [5], above 24.7. In addition, the EC50 was above 11000 nM in data set [3], above 2770 nM in data set [7] and above 11100 nM in data set [8].
